Experiments:
[1] = target: T1, Bifunctional epoxide hydrolase 2 (Homo sapiens, UniProt P34913)
T1 sequence (P34913 whole entry): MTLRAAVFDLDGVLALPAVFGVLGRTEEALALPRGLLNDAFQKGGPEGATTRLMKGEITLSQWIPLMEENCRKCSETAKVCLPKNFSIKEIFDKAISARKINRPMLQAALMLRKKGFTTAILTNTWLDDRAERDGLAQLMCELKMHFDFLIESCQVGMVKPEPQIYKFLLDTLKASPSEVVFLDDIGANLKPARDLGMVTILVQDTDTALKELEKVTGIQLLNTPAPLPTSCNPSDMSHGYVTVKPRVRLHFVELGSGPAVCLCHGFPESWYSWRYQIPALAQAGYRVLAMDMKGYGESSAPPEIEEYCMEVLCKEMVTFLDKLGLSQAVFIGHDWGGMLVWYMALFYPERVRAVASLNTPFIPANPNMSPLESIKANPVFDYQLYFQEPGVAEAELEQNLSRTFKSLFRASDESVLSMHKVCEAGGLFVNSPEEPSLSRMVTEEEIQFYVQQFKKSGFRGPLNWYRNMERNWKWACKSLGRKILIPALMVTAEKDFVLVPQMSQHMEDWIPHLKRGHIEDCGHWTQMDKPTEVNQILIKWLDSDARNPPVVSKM
Description: Inhibition of human soluble epoxide hydrolase overexpressed in HEK293F cells using EET as substrate assessed as formation of DHET incubated for 30 mins prior to substrate addition measured after 60 mins by ELISA

[2] = target: Cytochrome P450 2C9 (Homo sapiens, UniProt P11712)
Sequence of Cytochrome P450 2C9 (P11712 whole entry): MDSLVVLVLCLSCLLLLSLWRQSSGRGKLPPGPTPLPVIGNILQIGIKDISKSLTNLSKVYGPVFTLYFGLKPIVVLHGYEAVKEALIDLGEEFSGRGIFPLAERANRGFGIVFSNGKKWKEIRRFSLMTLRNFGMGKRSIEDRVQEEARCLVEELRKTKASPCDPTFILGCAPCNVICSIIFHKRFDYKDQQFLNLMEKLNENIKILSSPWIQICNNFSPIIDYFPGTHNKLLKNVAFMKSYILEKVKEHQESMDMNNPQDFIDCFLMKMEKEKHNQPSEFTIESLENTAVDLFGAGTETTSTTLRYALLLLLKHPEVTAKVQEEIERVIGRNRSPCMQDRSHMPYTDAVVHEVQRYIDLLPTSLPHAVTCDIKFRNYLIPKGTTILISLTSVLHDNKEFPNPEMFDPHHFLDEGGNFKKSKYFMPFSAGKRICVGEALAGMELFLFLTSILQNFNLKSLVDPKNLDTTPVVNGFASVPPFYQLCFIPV
Description: Inhibition of CYP2C9 (unknown origin)

[3] = target: T1, Bifunctional epoxide hydrolase 2; remark: listed apart in the source
Description: Inhibition of human soluble epoxide hydrolase using PHOME as substrate assessed as formation of 6-methoxy-2-naphthaldehyde incubated for 10 mins prior to substrate addition measured with in 30 mins by fluorescence assay

[4] = Fraction unbound in rat plasma; format: ADME, cell-free
[5] = Plasma clearance in rat at 1 mg/kg, iv; format: ADME, organism-based; set-up: dose 1 mg/kg, route intravenous

| SMILES | IC50 [1] [µM] | IC50 [2] [µM] | IC50 [3] [µM] | fraction unbound [4] | clearance [5] [L/h/kg] |
| --- | --- | --- | --- | --- | --- |
| CCc1nc(NC)nc(N2CCC(C(=O)NCc3ccccc3C(F)(F)F)CC2)n1 | 0.08 | 9.6 | 0.004 | – | – |
| Cc1nc(N2CCOCC2)nc(N2CCC(C(=O)NCc3ccccc3C(F)(F)F)CC2)n1 | 0.003 | 0.4 | 0.001 | – | – |
| CNc1nc(-c2ccccc2)nc(N2CCC(C(=O)NCc3ccccc3C(F)(F)F)CC2)n1 | 0.063 | 1.8 | 0.001 | 0.015 | 0.18 |
| CNc1nc(C)nc(N2CCC(C(=O)NCc3ccccc3C)CC2)n1 | – | > 25 | 0.2 | – | – |
| CNc1nc(C)nc(N2CCC(C(=O)NCc3ccccc3OC)CC2)n1 | – | > 25 | 1.6 | – | – |
| CNc1cc(C)nc(N2CCC(C(=O)NCc3ccccc3C(F)(F)F)CC2)n1 | – | > 25 | 0.16 | – | – |
| COCCNc1nc(C)nc(N2CCC(C(=O)NCc3ccccc3C(F)(F)F)CC2)n1 | 0.001 | 1.8 | 0.001 | – | 1.62 |
| CNc1cc(C)nc(N2CCC(C(=O)NCc3ccccc3C(F)(F)F)CC2)c1 | – | > 25 | 1.59 | – | – |
| CNc1cc(N2CCC(C(=O)NCc3ccccc3C(F)(F)F)CC2)nc(C)n1 | 0.08 | 1 | 0.005 | – | 4.38 |
| CNc1nc(NC)nc(N2CCC(C(=O)NCc3ccccc3C(F)(F)F)CC2)n1 | 0.1 | 25 | 0.02 | – | 4.74 |
| CNc1nc(N(C)CCN(C)C)nc(N2CCC(C(=O)NCc3ccccc3C(F)(F)F)CC2)n1 | – | 17 | 0.08 | – | 8.4 |
| CNc1nc(C)nc(N2CCC(C(=O)NCc3ccccc3)CC2)n1 | – | > 25 | 0.2 | – | – |
| CNc1cc(C)cc(N2CCC(C(=O)NCc3ccccc3C(F)(F)F)CC2)c1 | – | 2 | 0.032 | – | – |
| CNc1nc(C)nc(N2CCC(C(=O)NCc3ccc(OC(F)(F)F)cc3)CC2)n1 | – | > 25 | 0.4 | – | – |
| CNc1nc(C)nc(N2CCC(C(=O)NCc3ccccc3C#N)CC2)n1 | – | > 25 | 0.08 | – | – |
| CNc1cc(C)cc(N2CCC(C(=O)NCc3ccccc3C(F)(F)F)CC2)n1 | 0.1 | 11 | 0.01 | – | 3.66 |
| CNc1nc(C)nc(N2CCC(C(=O)NCc3ccccc3C(F)(F)F)CC2)n1 | 0.1 | 25 | 0.003 | – | 3.06 |
| CNc1nc(C)nc(N2CCC(C(=O)NCc3cccc(OC(F)(F)F)c3)CC2)n1 | – | > 25 | 0.63 | – | – |
| CNc1nc(C)nc(N2CCC(C(=O)NCc3ccccc3OC(F)(F)F)CC2)n1 | 0.003 | > 25 | 0.001 | – | 2.64 |
| Cc1nc(NC(C)C)nc(N2CCC(C(=O)NCc3ccccc3C(F)(F)F)CC2)n1 | 0.01 | 0.4 | 0.001 | – | – |
| CNc1nc(N2CCC(C(=O)NCc3ccccc3C(F)(F)F)CC2)nc(N2CCN(C)CC2)n1 | – | – | – | – | 2.76 |
| CNc1nc(C2CCCCC2)nc(N2CCC(C(=O)NCc3ccccc3C(F)(F)F)CC2)n1 | – | 0.063 | 0.001 | – | – |
| CNc1nc(C)cc(N2CCC(C(=O)NCc3ccccc3C(F)(F)F)CC2)n1 | – | > 25 | 0.04 | – | – |
| CNc1nc(C)nc(N2CCC(C(=O)NCc3ccc(F)cc3C(F)(F)F)CC2)n1 | 0.05 | > 25 | 0.003 | – | – |
| CNc1nc(C)nc(N2CCC(C(=O)NCc3ccc(OC)cc3C(F)(F)F)CC2)n1 | 0.002 | > 25 | 0.001 | – | 0.42 |
| CNc1cc(N2CCC(C(=O)NCc3ccccc3C(F)(F)F)CC2)cc(C)n1 | – | > 25 | 0.126 | – | – |
